Reference: US20050085463A1 (priority 2003, published 2005)

Tests used:
[1] = biological target: D25 receptors (Homo sapiens, UniProt P14416); test: Ligand binding screen at 10 μM
[2] = biological target: 5HT6 receptors (Homo sapiens, UniProt P50406); test: Ligand binding screen at 10 μM
[3] = test system: amphetamine-induced hyperactivity; test: Reversal of amphetamine-induced hyperactivity; assay type: in vivo, Non-Swiss Albino (NSA) mice; conditions: s.c. or p.o.
[4] = biological target: T1, M1 muscarinic receptor (Homo sapiens, UniProt P11229); test: R-SAT competitive antagonist assay; assay type: cell-based; design: expressed in transfected cells; host or cells: NIH/3T3; conditions: nr = no significant antagonist or inverse agonist activity up to 1 μM, nr* = nr but significant agonist activity
T1 sequence (P11229 1-460): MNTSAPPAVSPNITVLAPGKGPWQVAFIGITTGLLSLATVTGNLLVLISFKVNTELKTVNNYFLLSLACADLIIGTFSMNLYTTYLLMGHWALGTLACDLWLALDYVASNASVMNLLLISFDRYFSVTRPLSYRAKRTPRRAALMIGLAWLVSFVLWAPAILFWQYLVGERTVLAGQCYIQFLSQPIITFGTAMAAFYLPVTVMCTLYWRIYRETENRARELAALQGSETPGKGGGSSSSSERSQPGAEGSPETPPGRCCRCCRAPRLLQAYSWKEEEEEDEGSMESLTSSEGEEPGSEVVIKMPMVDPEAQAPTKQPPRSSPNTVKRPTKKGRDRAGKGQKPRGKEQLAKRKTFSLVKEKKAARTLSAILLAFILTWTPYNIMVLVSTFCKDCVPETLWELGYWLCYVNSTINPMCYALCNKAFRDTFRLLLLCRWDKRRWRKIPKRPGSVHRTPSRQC

[5] = biological target: M1 receptors (Homo sapiens, UniProt P11229); test: Ligand binding screen at 10 μM
[6] = test system: spontaneous activity; test: Spontaneous locomotion; assay type: in vivo, Non-Swiss Albino (NSA) mice; conditions: 10 mg/kg s.c.; maintained for 120 minutes
[7] = biological target: D1 receptors (Homo sapiens, UniProt P21728); test: Ligand binding screen at 10 μM
D1 receptors, sequence (P21728 whole entry): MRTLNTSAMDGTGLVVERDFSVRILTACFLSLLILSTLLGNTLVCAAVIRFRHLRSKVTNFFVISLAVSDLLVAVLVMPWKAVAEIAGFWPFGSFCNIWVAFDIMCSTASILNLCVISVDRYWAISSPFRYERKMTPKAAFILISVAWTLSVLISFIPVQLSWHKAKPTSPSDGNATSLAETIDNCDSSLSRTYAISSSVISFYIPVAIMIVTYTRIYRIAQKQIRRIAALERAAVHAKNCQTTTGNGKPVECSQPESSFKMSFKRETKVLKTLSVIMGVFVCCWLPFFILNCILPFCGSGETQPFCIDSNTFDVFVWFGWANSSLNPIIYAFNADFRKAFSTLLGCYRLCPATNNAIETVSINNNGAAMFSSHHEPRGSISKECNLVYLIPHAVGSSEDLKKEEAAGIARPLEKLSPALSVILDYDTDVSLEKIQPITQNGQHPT

[8] = biological target: 5HT1B receptors (Homo sapiens, UniProt P28222); test: Ligand binding screen at 10 μM
5HT1B receptors, sequence (P28222 whole entry): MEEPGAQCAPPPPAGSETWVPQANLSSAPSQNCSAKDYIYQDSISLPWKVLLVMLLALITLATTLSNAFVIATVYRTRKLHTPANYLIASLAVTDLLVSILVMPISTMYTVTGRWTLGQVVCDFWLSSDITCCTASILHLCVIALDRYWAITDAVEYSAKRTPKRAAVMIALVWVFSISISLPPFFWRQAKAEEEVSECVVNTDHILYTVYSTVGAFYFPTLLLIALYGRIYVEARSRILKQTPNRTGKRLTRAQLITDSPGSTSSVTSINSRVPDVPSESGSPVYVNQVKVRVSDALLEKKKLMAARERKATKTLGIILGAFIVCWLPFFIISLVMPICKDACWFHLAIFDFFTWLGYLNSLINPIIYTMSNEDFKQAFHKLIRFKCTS

[9] = test system: cFOS expression in brain; conditions: s.c. 7.5 and 30.0 mg/kg; two hours; western blotting (Young et al.); cited from earlier work
[10] = steady state kinetics in humans (ref. 13); cited from earlier work
[11] = biological target: T2, M5 muscarinic receptor (Homo sapiens, UniProt P08912); test: R-SAT competitive antagonist assay; conditions: nr = no significant antagonist or inverse agonist activity up to 1 μM, nr* = nr but significant agonist activity
T2 sequence (P08912 1-532): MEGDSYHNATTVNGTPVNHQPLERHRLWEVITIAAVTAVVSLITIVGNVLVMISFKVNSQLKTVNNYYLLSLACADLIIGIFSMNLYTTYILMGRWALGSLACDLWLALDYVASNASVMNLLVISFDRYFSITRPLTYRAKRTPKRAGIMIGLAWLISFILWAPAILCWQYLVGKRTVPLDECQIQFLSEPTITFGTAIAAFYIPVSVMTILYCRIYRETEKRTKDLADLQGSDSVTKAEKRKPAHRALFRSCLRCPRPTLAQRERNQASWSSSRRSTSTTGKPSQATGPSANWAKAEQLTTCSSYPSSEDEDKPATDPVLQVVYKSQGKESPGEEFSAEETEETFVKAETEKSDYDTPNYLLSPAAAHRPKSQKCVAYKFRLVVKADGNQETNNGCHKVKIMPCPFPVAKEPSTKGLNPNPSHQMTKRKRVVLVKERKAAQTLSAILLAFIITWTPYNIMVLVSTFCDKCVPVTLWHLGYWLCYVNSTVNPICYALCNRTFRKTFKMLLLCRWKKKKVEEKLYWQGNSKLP

[12] = biological target: T3, α1A (Alpha 1A) adrenergic receptor (Homo sapiens, UniProt P35348); test: cell-based
T3 sequence (P35348 1-466): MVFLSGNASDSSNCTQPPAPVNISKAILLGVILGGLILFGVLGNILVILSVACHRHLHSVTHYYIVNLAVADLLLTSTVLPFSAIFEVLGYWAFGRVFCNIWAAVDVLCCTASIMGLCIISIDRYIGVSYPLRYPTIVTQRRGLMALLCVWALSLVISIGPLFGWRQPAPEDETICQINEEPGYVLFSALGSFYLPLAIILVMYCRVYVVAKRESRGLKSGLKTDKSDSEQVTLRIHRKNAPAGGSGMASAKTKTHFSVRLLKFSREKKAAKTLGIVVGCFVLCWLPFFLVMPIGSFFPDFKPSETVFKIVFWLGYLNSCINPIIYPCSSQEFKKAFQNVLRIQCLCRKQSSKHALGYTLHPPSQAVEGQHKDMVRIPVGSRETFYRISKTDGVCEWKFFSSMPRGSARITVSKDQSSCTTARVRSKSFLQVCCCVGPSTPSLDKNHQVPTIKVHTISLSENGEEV

[13] = biological target: δ2 receptors (Homo sapiens, UniProt P41143); test: Ligand binding screen at 10 μM
δ2 receptors, sequence (P41143 whole entry): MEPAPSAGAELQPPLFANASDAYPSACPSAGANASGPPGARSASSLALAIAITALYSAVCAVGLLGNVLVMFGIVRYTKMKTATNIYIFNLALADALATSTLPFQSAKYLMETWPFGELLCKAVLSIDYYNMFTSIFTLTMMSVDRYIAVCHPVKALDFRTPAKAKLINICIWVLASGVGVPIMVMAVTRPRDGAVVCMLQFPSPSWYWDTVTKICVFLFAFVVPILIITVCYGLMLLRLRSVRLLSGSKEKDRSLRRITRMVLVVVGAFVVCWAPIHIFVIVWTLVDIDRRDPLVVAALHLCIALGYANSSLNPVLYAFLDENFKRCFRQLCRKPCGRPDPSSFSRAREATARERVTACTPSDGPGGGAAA

[14] = biological target: T4, M4 muscarinic receptor (Homo sapiens, UniProt P08173); test: R-SAT agonist assay; assay type: cell-based; design: expressed in transfected cells; host or cells: NIH/3T3; conditions: relative to carbachol, No response/nr = no agonist activity up to 10 μM
T4 sequence (P08173 1-479): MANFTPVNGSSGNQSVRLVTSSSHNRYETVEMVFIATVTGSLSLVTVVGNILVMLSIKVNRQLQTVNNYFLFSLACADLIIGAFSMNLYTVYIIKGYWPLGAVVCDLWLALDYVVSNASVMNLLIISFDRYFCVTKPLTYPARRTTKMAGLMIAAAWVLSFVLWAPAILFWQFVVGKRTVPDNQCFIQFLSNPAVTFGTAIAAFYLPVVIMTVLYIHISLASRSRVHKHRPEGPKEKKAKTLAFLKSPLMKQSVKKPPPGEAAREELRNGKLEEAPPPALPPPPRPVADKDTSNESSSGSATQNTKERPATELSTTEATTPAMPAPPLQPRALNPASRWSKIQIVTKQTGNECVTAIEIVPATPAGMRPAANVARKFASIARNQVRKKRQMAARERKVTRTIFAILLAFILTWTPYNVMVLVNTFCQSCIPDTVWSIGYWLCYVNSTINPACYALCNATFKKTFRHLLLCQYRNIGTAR

D25 receptors, sequence (P14416 1-414 isoform P14416-2): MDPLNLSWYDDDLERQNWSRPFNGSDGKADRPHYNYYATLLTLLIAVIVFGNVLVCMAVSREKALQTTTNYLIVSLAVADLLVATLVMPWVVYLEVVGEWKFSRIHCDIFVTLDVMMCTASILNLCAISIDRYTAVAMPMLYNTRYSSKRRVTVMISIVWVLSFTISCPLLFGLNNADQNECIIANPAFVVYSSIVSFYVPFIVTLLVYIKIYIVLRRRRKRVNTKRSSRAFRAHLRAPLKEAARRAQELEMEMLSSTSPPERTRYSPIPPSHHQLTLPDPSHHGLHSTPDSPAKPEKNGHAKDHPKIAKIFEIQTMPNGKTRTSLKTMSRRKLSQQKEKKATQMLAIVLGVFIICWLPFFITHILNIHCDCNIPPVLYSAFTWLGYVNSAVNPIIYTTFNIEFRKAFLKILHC
5HT6 receptors, sequence (P50406 whole entry): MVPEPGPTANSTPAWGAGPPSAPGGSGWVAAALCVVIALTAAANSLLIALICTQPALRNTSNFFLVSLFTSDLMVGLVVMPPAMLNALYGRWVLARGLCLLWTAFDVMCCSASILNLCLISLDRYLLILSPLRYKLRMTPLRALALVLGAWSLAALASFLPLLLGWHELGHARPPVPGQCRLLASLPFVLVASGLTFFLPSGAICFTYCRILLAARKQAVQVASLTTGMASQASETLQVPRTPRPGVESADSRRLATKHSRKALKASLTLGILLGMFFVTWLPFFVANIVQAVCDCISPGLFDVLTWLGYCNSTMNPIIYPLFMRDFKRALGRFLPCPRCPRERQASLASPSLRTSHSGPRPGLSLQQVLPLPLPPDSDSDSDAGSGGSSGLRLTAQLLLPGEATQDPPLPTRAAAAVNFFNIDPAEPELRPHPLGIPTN

For `Clc1ccc2c(c1)N=C(N1CCNCC1)c1ccccc1N2` [NDMC, 8-chloro-11-(1-piperazinyl)-5H-dibenzo [b,e][1,4] diazepine], the inhibition at 10 µM [1] was no less than 90%, the inhibition at 10 µM [2] was no less than 90% and the “dose that attenuated amphetamine-induced hyperactivity” value [3] was 10 mg/kg. For the same compound, the “pKi M1, competitive antagonist” value [4] was “nr*”, the inhibition at 10 µM [5] was no less than 90% and the “time of maximal reduction of spontaneous activity” value [6] was 30 min. For the same compound, the inhibition at 10 µM [7] was no less than 90%, the inhibition at 10 µM [8] was no less than 90% and the “cFOS expression in brain regions” value [9] was “induction of cFOS expression in the pre-frontal cortex and nucleus accumbens, but not in striatum”. The “share of total serum clozapine concentrations” value [10] was 40-75%, the “pKi M5, competitive antagonist” value [11] was “nr*” and the Ki [12] was 50.1 nM. For the same compound, the inhibition at 10 µM [13] was no less than 90% and the “M4 Efficacy” value [14] was 87 ± 8%.
